Residue numbers refer to the chain shown, from its start.
Assays:
Format in all cases: cell-based
rP2 × 4R D170N mutant = target: T1, rP2 × 4R D170N mutant (Rattus norvegicus, UniProt P51577, D170N); experiment: ATP concentration–response curves, voltage clamp, D170N mutant; conditions: for EC50: ATP EC50, D170N
T1 construct: host or cells: Xenopus laevis oocytes
T1 sequence (P51577 1-388 D170N): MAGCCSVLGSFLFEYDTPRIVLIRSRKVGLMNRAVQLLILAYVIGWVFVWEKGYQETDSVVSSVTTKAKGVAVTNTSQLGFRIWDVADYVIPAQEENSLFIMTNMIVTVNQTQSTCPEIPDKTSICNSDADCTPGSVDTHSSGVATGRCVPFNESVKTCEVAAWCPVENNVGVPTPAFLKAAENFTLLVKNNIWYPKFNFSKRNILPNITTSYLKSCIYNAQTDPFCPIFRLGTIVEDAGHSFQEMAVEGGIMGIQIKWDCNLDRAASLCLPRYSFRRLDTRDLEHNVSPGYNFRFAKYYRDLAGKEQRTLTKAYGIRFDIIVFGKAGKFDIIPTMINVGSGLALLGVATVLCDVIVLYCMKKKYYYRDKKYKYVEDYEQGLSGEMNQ

rP2 × 4R C159T mutant = target: T2, rP2 × 4R C159T mutant (Rattus norvegicus, UniProt P51577, C159T); experiment: ATP concentration–response curves, voltage clamp, C159T mutant; conditions: for EC50: ATP EC50, C159T
T2 construct: expressed in transfected cells; host or cells: Xenopus laevis oocytes
T2 sequence (P51577 1-388 C159T): T1 sequence (P51577 1-388 D170N) with C159T, N170D

[1] = target: T3, rP2 × 4R C126A/C149A mutant (Rattus norvegicus, UniProt P51577, C126A/C149A); experiment: ATP concentration–response curves, voltage clamp, C126A/C149A double mutant; conditions: for EC50: ATP EC50, C126A/C149A
T3 construct: host or cells: Xenopus laevis oocytes
T3 sequence (P51577 1-388 C126A/C149A): T1 sequence (P51577 1-388 D170N) with C126A, C149A, N170D

[2] = target: T4, rP2 × 4R C132A/C159A mutant (Rattus norvegicus, UniProt P51577, C132A/C159A); experiment: ATP concentration–response curves, voltage clamp, C132A/C159A double mutant; conditions: for EC50: ATP EC50, C132A/C159A
T4 construct: host or cells: Xenopus laevis oocytes
T4 sequence (P51577 1-388 C132A/C159A): T1 sequence (P51577 1-388 D170N) with C132A, C159A, N170D

[3] = target: T5, rP2 × 4R C132T/C159T mutant (Rattus norvegicus, UniProt P51577, C132T/C159T); experiment: ATP concentration–response curves, voltage clamp, C132T/C159T double mutant
T5 construct: expressed in transfected cells; host or cells: Xenopus laevis oocytes
T5 sequence (P51577 1-388 C132T/C159T): T1 sequence (P51577 1-388 D170N) with C132T, C159T, N170D

[4] = target: T6, rP2 × 4R C132S/C159S mutant (Rattus norvegicus, UniProt P51577, C132S/C159S); experiment: ATP concentration–response curves, voltage clamp, C132S/C159S double mutant
T6 construct: host or cells: Xenopus laevis oocytes
T6 sequence (P51577 1-388 C132S/C159S): T1 sequence (P51577 1-388 D170N) with C132S, C159S, N170D

EC50 (rP2 × 4R D170N mutant; +10 µM Zn(II))	EC50 (rP2 × 4R D170N mutant; control)	EC50 (rP2 × 4R C159T mutant; +10 µM Zn(II))	EC50 (rP2 × 4R C159T mutant; control)	EC50 ([1]; +10 µM Zn(II))	EC50 ([1]; control)	EC50 ([2]; +10 µM Zn(II))	EC50 ([2]; control)	EC50 ([3]; control)	Imax ([3]; control)	EC50 ([4]; control)	Structure (SMILES)	EC50 ratio in the metal presence (rP2 × 4R D170N mutant; D170N, 10 µM Zn(II))	fold ATP EC50 reduction by Zn(II) (rP2 × 4R C159T mutant; C159T, 10 µM Zn(II))	fold decrease in ATP EC50 by Zn(II) ([1]; C126A/C149A, 10 µM Zn(II))	fold reduction in ATP EC50 by Zn(II) ([2]; C132A/C159A, 10 µM Zn(II))	fold ATP EC50 reduction by Zn(II) ([3]; 10 µM Zn(II))	fold reduction in ATP EC50 by Zn(II) ([4]; 10 µM Zn(II))
12.8 ± 8.1 µM	19.3 ± 10.5 µM	7 ± 2 µM	37.3 ± 8.8 µM	10.1 ± 4.1 µM	22.9 ± 6.7 µM	4.5 ± 1.6 µM	77.1 ± 24.1 µM	27.4 ± 13.6 µM	3.2 ± 0.7 µA	20.5 ± 5 µM	Nc1ncnc2c1ncn2[C@@H]1O[C@H](COP(=O)(O)OP(=O)(O)OP(=O)(O)O)[C@@H](O)[C@H]1O [ATP, adenosine triphosphate]						
											[Cl-].[Cl-].[Zn+2] [Zn(II), zinc chloride (ZnCl2)]	1.5	5.32 fold	2.26 fold	17.1 fold	5.5 fold	3.41 fold
